Data set [1] deals with HT-29 cells. Conditions: human.
The test system of data set [2] is SW620 cells. Conditions: human.
The test system of data set [3] is DLD-1 cells. Conditions: 5 days; four experiments in triplicate; concentration (10A304.7, Anti-Fas, 107.3, MPC-11 20 μg/mL; c225 5 μg/mL; Cycloheximide 100 μM).
Data set [4] deals with Lovo cells. Particulars: 5 days; four experiments in triplicate; concentration (10A304.7, Anti-Fas, 107.3, MPC-11 20 μg/mL; c225 5 μg/mL; Cycloheximide 100 μM).
Data set [5] deals with SW1116 cells. Conditions: 5 days; four experiments in triplicate; concentration (10A304.7, Anti-Fas, 107.3, MPC-11 20 μg/mL; c225 5 μg/mL; Cycloheximide 100 μM).
For data set [6], the system named is BxPC-3 cells. Conditions: 5 days; four experiments in triplicate; concentration (10A304.7, Anti-Fas, 107.3, MPC-11 20 μg/mL; c225 5 μg/mL; Cycloheximide 100 μM).
Data set [7] deals with MB-231 cells. Particulars: 5 days; four experiments in triplicate; concentration (10A304.7, Anti-Fas, 107.3, MPC-11 20 μg/mL; c225 5 μg/mL; Cycloheximide 100 μM).
For data set [8], the system named is MCF-7 cells. Conditions: 5 days; four experiments in triplicate; concentration (10A304.7, Anti-Fas, 107.3, MPC-11 20 μg/mL; c225 5 μg/mL; Cycloheximide 100 μM).
The test system of data set [9] is PC-3 cells. Particulars: 5 days; four experiments in triplicate; concentration (10A304.7, Anti-Fas, 107.3, MPC-11 20 μg/mL; c225 5 μg/mL; Cycloheximide 100 μM).
In data set [10] the test system is OVCAR cells. Conditions: 5 days; four experiments in triplicate; concentration (10A304.7, Anti-Fas, 107.3, MPC-11 20 μg/mL; c225 5 μg/mL; Cycloheximide 100 μM).
The subject of data set [11] is HT-29 cells. Briefly: Live/Dead cytotoxicity assay, purified antibody. Conditions: 5 days; four experiments in triplicate; concentration (10A304.7, Anti-Fas, 107.3, MPC-11 20 μg/mL; c225 5 μg/mL; Cycloheximide 100 μM).
Data set [12] has as its system SW620 cells. The data set is described as follows: Live/Dead cytotoxicity assay, purified antibody. Conditions: 5 days; four experiments in triplicate; concentration (10A304.7, Anti-Fas, 107.3, MPC-11 20 μg/mL; c225 5 μg/mL; Cycloheximide 100 μM).
The subject of data set [13] is SW1116 cells. The data set is described as follows: Live/Dead cytotoxicity assay, hybridoma supernatant. Conditions: hybridoma supernatant or controls, 5 days.
The subject of data set [14] is colorectal cancer. Conditions: cited from earlier work.

In the case of `C[C@@H]1C[C@@H]([C@H](O)CC2CC(=O)NC(=O)C2)C(=O)[C@@H](C)C1` [Cycloheximide], in data set [1], the “Cytotoxicity (%) HT-29 Average” value stood at 23%. Further, the “Cytotoxicity (%) SW620 Average” value in [2] was −2%. Moreover, the “Cytotoxicity above background, Colon DLD-1” value in data set [3] is on record as “++++ (4/4 experiments with 15% cytotoxicity above background (++++))”. Besides, the “Cytotoxicity above background, Colon Lovo” value in data set [4] is on record as “++++ (4/4 experiments with 15% cytotoxicity above background (++++))”. Further, the “Cytotoxicity above background, Colon SW1116” value in data set [5] is “++++ (4/4 experiments with 15% cytotoxicity above background (++++))”. The “Cytotoxicity above background, Pancreas BxPC-3” value in data set [6] was “++++ (4/4 experiments with 15% cytotoxicity above background (++++))”. In addition, the “Cytotoxicity above background, Breast MB-231” value in data set [7] is listed as “++++ (4/4 experiments with 15% cytotoxicity above background (++++))”. Further, the “Cytotoxicity above background, Breast MCF-7” value in data set [8] was “++++ (4/4 experiments with 15% cytotoxicity above background (++++))”. Also, the “Cytotoxicity above background, Prostate PC-3” value in data set [9] is listed as “++++ (4/4 experiments with 15% cytotoxicity above background (++++))”. For the same molecule, the “Cytotoxicity above background, Ovary OVCAR” value in [10] is “++++ (4/4 experiments with 15% cytotoxicity above background (++++))”. In addition, in data set [11], the “Cytotoxicity above background, Colon HT-29” value was “++++ (4/4 experiments with 15% cytotoxicity above background (++++))”. Also, the “Cytotoxicity above background, Colon SW820” value in data set [12] is reported as “++++ (4/4 experiments with 15% cytotoxicity above background (++++))”. The “Cytotoxicity (%) SW1116 Average” value in [13] was 17%.

B1: 17-1A: antibody with some specificity for adenocarcinomas, tested in colorectal cancer clinical trials (antibody, chains of the INN, looked up, V domains shown)
VH: QVQLQQSGAELVRPGTSVKVSCKASGYAFTNYLIEWVKQRPGQGLEWIGVINPGSGGTNYNEKFKGKATLTADKSSSTAYMQLSSLTSDDSAVYFCARDGPWFAYWGQGTLVTVSA
VL: NIVMTQSPKSMSMSVGERVTLTCKASENVVTYVSWYQQKPEQSPKLLIYGASNRYTGVPDRFTGSGSATDFTLTISSVQAEDLADYHCGQGYSYPYTFGGGTKLEIK
In the case of B1, in data set [14] (52 patients, with cyclophosphamide), the “clinical response, protocols using additional cyclophosphamide” value is “only one complete response and two minor responses among 52 patients”. For the same molecule, the “clinical response, Phase 2 clinical trials” value in [14] (over 60 patients) is reported as “only one patient having a partial response”.

(Values after patent US6794494B1, “Cancerous disease modifying antibodies” (Arius Research, Inc., priority 2003, dated 2004).)
